Values of other authors as cited in article PMC4128962 (Journal of controlled release : official journal of the …, 2013).

Substance: Hyaluronic acid [HA]
- pKa: about 3.0
